Legend:
[1] = system: Enterobacter aerogenes MDR Ea289; assay: MIC of antibiotics ± test compound (MIC ratio), micro-broth dilution; format: cell-based; conditions: compound at MIC/4, Set 2; for MIC ratio (*) on Ea289 Dox: doxycycline; for MIC ratio (*) on Ea289 Nal: nalidixic acid
[2] = system: Enterobacter aerogenes MDR Ea289; assay: as above; format: cell-based; conditions: Set 2; for MIC ratio (*) on Ea289 Chl: chloramphenicol, compound at MIC/4
Experimental: The process consists of treating the MDR bacteria with the compounds of the invention in the presence of antibiotics.
(§1) Susceptibilities to antibiotics and compounds were determined in microplates by broth dilution method, as previously described. Minimal Inhibitory Concentrations (MICs) were determined with an inoculum of 10^6 CFU in 200 μL of MH broth containing two-fold serial dilutions of each drug. […] All MIC determinations were repeated at least three times in independent experiments.
The MICs of chloramphenicol±test compounds (MIC/4) were determined by the micro-broth dilution method (9). All MIC determinations were repeated at least three times in independent experiments. The MIC ratio corresponds to the ratio of the MIC of an antibiotic alone to the MIC of the same antibiotic in the presence of the tested compound (at MIC/4).
The compounds listed in Table 2 were tested for their ability to decrease the chloramphenicol MIC of Ea289, an Enterobacter aerogenes MDR strain (1). Each compound was first tested at MIC/4. […] All MIC determinations were repeated at least three times in independent experiments.
(§2) For reminder, the MIC ratio corresponds to the ratio of the MIC of the assessed antibiotic alone to the MIC of the same antibiotic in the presence of the tested compound (at MIC/4).

[3] = system: Salmonella Thyphimurium MDR BN10055; assay: as above; format: cell-based, Salmonella enterica serovar Typhimurium; conditions: Set 2; for MIC ratio (*) on BN10055 Chl: chloramphenicol; for MIC ratio (*) on BN10055 Chl / MIC ratio (*) on BN10055 Dox / MIC ratio (*) on BN10055 Nal: compound at MIC/4; for MIC ratio (*) on BN10055 Dox: doxycycline; for MIC ratio (*) on BN10055 Nal: nalidixic acid
Experimental: The Enterobacter aerogenes Ea289 strain is a Kans derivative of the MDR clinical isolate Ea27, the acrB mutant, EaEP294, was constructed from Ea289. Multidrug-resistant Salmonella enterica serovar Typhimurium DT104 strains (BN10055) was isolated from cattle in France, the isogenic acrB derivative mutant, BN10055ΔacrB, was constructed from BN10055. Strains were maintained at −80° C. in 25% (v/v) glycerol for cryoprotection. Bacteria were routinely grown in Mueller-Hinton (MH) broth at 37° C.
as §1
[…] All MIC determinations were repeated at least three times in independent experiments. The MIC ratio corresponds to the ratio of the MIC of an antibiotic alone to the MIC of the same antibiotic in the presence of the tested compound (at MIC/4).
as §2

[4] = system: strain IV2571418 - Escherichia coli pig (resistant); assay: MIC of antibiotics in the presence and absence of test compound, veterinary strains; format: cell-based; parameters: MIC for strain IV2571418, Doxycycline in the presence of test compound: unit not given beside the values; conditions: compound at the Concentration (μM) (4-50)
Experimental: (§3) For each strain and each antibiotic, the MICs were determined in the presence and in the absence of one test compound.

[5] = system: strain IV2570533 - Escherichia coli cattle (resistant); assay: as above; format: cell-based; conditions: compound at the Concentration (μM) (0.896-12.6)
Experimental: as §3

[6] = system: strain IV2570060 - Escherichia coli cattle (sensible); assay: as above; format: cell-based; conditions: compound at the Concentration (μM) (4-50)
Experimental: as §3

[7] = system: strain IV2571223 - Escherichia coli pig (sensible); assay: as above; format: cell-based; parameters: MIC for strain IV2571223, Doxycycline in the presence of test compound: unit not given beside the values; conditions: compound at the Concentration (μM) (2-50)
Experimental: as §3

Compound | MIC ratio (*) on Ea289 Dox [1] | MIC ratio (*) on Ea289 Nal [1] | MIC ratio (*) on Ea289 Chl [2] | MIC ratio (*) on BN10055 Chl [3] | MIC ratio (*) on BN10055 Dox [3] | MIC ratio (*) on BN10055 Nal [3] | MIC for strain IV2571418, Doxycycline in the presence of test compound [4] | MIC for strain IV2571418, Tylosine in the presence of test compound [4] | MICs for doxycycline and nalidixic acid, Ea289 ([2]; doxycycline and nalidixic acid) | MIC for strain IV2570533, Doxycycline in the presence of test compound [5] | MIC for strain IV2570533, Tylosine in the presence of test compound [5] | MIC for strain IV2570060, Doxycycline in the presence of test compound [6] | MIC for strain IV2570060, Tylosine in the presence of test compound [6] | MIC for strain IV2571223, Doxycycline in the presence of test compound [7] | MIC for strain IV2571223, Tylosine in the presence of test compound [7] | MICs for doxycycline and nalidixic acid, BN100055 ([3]; doxycycline and nalidixic acid)
CC(C)=CCC/C(C)=C/CC/C(C)=C/CNCCCCCN [Compound 18] | 64 | 8 | 8-16 | 4-8 | 16 | 16 |  |  |  |  |  |  |  |  |  | 
CC(C)=CCC/C(C)=C/CC/C(C)=C/CNCCCNCCCCN [Compound 19] | 64 | 16 | 8-16 | 8-16 | 16 | 64 |  |  |  |  |  |  |  |  |  | 
CC(C)=CCC/C(C)=C/CC/C(C)=C/CNCCCNCCCN [Compound 20] | 32 | 8 | 8 | 8 | 32 | 64 |  |  |  |  |  |  |  |  |  | 
CCN(CC)CCNCCCNC/C=C(\C)CCC=C(C)C [Compound 21] | 32 | 8 | 8-16 | 16 | 32 | 64 |  |  |  |  |  |  |  |  |  | 
CC(C)=CCC/C(C)=C/CC/C(C)=C/CNCCCN1CCCC1 [Compound 22] | 32 | 16 | 8-16 | 16 | 32 | 128 |  |  |  |  |  |  |  |  |  | 
CC(C)=CCC/C(C)=C/CC/C(C)=C/CNCCCN1CCOCC1 [Compound 23] | 32 | 8 | 8 | 8 | 16 | 32 |  |  |  |  |  |  |  |  |  | 
CC(C)=CCC/C(C)=C/CC/C(C)=C/CNCCNCCNCCNCCNCCN [Compound 35, [2-(2-{2-[2-(2-Amino-ethylamino)-ethylamino]-ethylamino}-ethylamino)-ethyl]-(3,7,11-trimethyl-dodeca-2,6,10-trienyl)-amine] |  |  |  |  |  |  | 2 | 8 | > 8 | 1 | 4 | 0.0625 | 8 | 0.0625 | 32 | > 8
